The test system of experiment [1] is 6 of the PH domains identified (GST fusions). Kind of experiment: Phosphoinositide binding of PH domains (protein-lipid overlay or surface plasmon resonance). The conditions noted are these: data not shown. As to the method:
Protein-Lipid overlay. To assess the phosphoinositide binding properties of each PH domain, a protein-lipid overlay assay was performed using the GST fusion proteins as described previously. Briefly, 1 μl of lipid solution containing 1-100 pmol of phospholipids dissolved in a mixture of choroform:methanol:water (1:2:0.8) was spotted onto Hybond-C extra membrane and allowed to dry at room temperature for 1 h. The membrane was blocked in 3% (by mass) fatty acid-free BSA in TBST (50 mM Tris/HCl pH 7.5, 150 mM NaCl and 0.1% Tween-20 (by vol) for lh. The membrane was then incubated overnight at 4° C. with gentle agitation in the same solution containing 0.2 μg/ml of the indicated GST fusion protein. The membranes were washed 6 times over 30 min in TBST and then incubated for 1 h with 1/1000 dilution of anti-GST monoclonal antibody (Sigma). The membranes were washed as before, then incubated for 1 h with 1/5000 dilution of anti-mouse-HRP conjugate (Pierce). Finally, the membranes were washed 12 times over 1 h in TBST and the GST-fusion protein bound to the membrane by virtue of its interaction with phospholipid was detected by enhanced chemiluminescence. […]
We studied the specificity and affinity of interaction of the PH domains for phosphoinositide lipids using either a “protein-lipid overlay” assay (FIG. 2) or the more quantitative surface plasmon resonance based approach (Table 2). […]
(In general: SPR reads the build-up and loss of mass on a sensor chip optically.)

Experiment [2] concerns the target human evectin-2 PH domain (residues 1 to 167), GST fusion (Homo sapiens, UniProt Q96CS7). Kind of experiment: Protein-lipid overlay. The conditions noted are these: FIG. 2. It counts as binding. As to the method:
(§1) FIG. 2. Phosphoinositide binding properties of the novel PH domains. The ability of the indicated GST fusion proteins to bind a variety of phosphoinositides was analysed using a protein-lipid overlay. Serial dilutions of the indicated phosphoinositides (100 pmol, 50 pmol, 25 pmol, 12.5 pmol, 6.3 pmol, 3.1 pmol and 1.6 pmol) were spotted onto a nitrocellulose membranes which were then incubated with the purified GST fusion proteins. The membranes were washed and the GST-fusion proteins bound to the membrane by virtue of their interaction with lipid were detected using a GST antibody. A representative of at least 3 separate experiments carried out is shown.
(§2) Cloning of PH domains and preparation of expression constructs. All the human and mouse EST's were obtained from the I.M.A.G.E. Consortium and sequenced. The plant EST (accession number T04439) encoding a full length clone of AtPH1 was obtained from the Arabidopsis Biological Research. Centre (Ohio University). The sequence of each EST was verified and the full length PH domain of each EST was amplified by PCR using the Hi-fidelity PCR system with primers designed to incorporate a Kozak site, an initiating ATG codon followed by a myc epitope tag and a stop codon after the PH domain. […]

In experiment [3] the target is T1, mouse TAPP2 C-terminal PH domain (residues 174 to 425), GST fusion (Mus musculus, UniProt Q9ERS5).
T1 construct: made in house; host or cells: human embryonic kidney 293 cells (pEBG-2T)
T1 sequence (Q9ERS5 174-425): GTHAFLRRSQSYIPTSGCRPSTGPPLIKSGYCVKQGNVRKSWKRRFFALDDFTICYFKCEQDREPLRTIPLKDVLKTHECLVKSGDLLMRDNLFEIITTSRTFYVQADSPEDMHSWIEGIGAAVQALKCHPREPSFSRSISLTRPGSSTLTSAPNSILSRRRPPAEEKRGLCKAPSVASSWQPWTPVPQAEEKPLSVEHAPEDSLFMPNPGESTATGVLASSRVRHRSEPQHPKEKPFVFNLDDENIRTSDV
Kind of experiment: Protein-lipid overlay. It is filed as binding. The following applies: protein-lipid overlay (FIG. 2). As to the method:
as §1
(§3) FIG. 4. Comparison of the phosphoinositide binding properties of the N-terminal and C-terminal PH domains of TAPP1 and TAPP2. The ability of wild type and mutant forms of full length (FL) and isolated N-terminal (NT) and C-terminal (CT) PH domains of TAPP1 and TAPP2 GST-fusion proteins to interact with phosphoinositides were analysed using a protein-lipid overlay. Serial dilutions of the indicated phosphoinositides (100 pmol, 50 pmol, 25 pmol, 12.5 pmol, 6.3 pmol, 3.1 pmol and 1.6 pmol) were spotted onto a nitrocellulose membrane which was then incubated with the indicated purified GST fusion proteins. The membranes were washed and the GST-fusion proteins bound to the membrane by virtue of their interactions with lipid were detected using a GST antibody. A representative experiment of three is shown. The isolated N-terminal PH domain of human TAPP1 comprises residues 1 to 147, the isolated C-terminal PH domain of human TAPP1 comprises residues 95 to 404, the isolated N-terminal PH domain of mouse TAPP2 comprises residues 1 to 131 and the isolated C-terminal PH of mouse TAPP2 comprises residues 174 to 425.
(§4) Protein-Lipid overlay. To assess the phosphoinositide binding properties of each PH domain, a protein-lipid overlay assay was performed using the GST fusion proteins as described previously. […] The membrane was blocked in 3% (by mass) fatty acid-free BSA in TBST (50 mM Tris/HCl pH 7.5, 150 mM NaCl and 0.1% Tween-20 (by vol) for lh. The membrane was then incubated overnight at 4° C. with gentle agitation in the same solution containing 0.2 μg/ml of the indicated GST fusion protein. The membranes were washed 6 times over 30 min in TBST and then incubated for 1 h with 1/1000 dilution of anti-GST monoclonal antibody (Sigma). The membranes were washed as before, then incubated for 1 h with 1/5000 dilution of anti-mouse-HRP conjugate (Pierce). Finally, the membranes were washed 12 times over 1 h in TBST and the GST-fusion protein bound to the membrane by virtue of its interaction with phospholipid was detected by enhanced chemiluminescence.

The target in experiment [4] is human TAPP1 C-terminal PH domain (residues 95 to 404), GST fusion (Homo sapiens, UniProt Q9HB21). The experiment is described as follows: Protein-lipid overlay. The following applies: protein-lipid overlay (FIG. 2). It is filed as binding. The protocol: as §1, §3, §4
Chain of human TAPP1 C-terminal PH domain (residues 95 to 404), GST fusion (Q9HB21 95-404): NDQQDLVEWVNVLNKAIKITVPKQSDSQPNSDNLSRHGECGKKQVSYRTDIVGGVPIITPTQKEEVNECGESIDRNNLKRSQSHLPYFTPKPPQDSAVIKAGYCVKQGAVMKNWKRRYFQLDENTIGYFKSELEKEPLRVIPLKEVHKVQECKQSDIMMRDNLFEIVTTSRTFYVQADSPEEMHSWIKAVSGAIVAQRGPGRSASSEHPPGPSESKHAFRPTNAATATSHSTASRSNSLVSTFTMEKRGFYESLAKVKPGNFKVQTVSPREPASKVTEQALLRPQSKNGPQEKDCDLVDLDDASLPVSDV
Experiment [5] deals with GST-GRP1. The following applies: control; cited from earlier work.
For experiment [6], the system named is GST-DAPP1. The following applies: control; cited from earlier work.
Experiment [7] has as its system PH domains whose lipid binding properties were investigated in FIG. 2 (GST fusions). The experiment is described as follows: Protein-lipid overlay. The conditions noted are these: data not shown. As to the method:
as §1
Protein-Lipid overlay. To assess the phosphoinositide binding properties of each PH domain, a protein-lipid overlay assay was performed using the GST fusion proteins as described previously. Briefly, 1 μl of lipid solution containing 1-100 pmol of phospholipids dissolved in a mixture of choroform:methanol:water (1:2:0.8) was spotted onto Hybond-C extra membrane and allowed to dry at room temperature for 1 h. The membrane was blocked in 3% (by mass) fatty acid-free BSA in TBST (50 mM Tris/HCl pH 7.5, 150 mM NaCl and 0.1% Tween-20 (by vol) for lh. The membrane was then incubated overnight at 4° C. with gentle agitation in the same solution containing 0.2 μg/ml of the indicated GST fusion protein. The membranes were washed 6 times over 30 min in TBST and then incubated for 1 h with 1/1000 dilution of anti-GST monoclonal antibody (Sigma). The membranes were washed as before, then incubated for 1 h with 1/5000 dilution of anti-mouse-HRP conjugate (Pierce). Finally, the membranes were washed 12 times over 1 h in TBST and the GST-fusion protein bound to the membrane by virtue of its interaction with phospholipid was detected by enhanced chemiluminescence.

In experiment [8] the test system is human phospholipase Cδ1 PH domain (residues 20 to 184), GST fusion. The conditions noted are these: control; cited from earlier work.
Experiment [9] deals with human FAPP1 PH domain (residues 1 to 99), GST fusion (Homo sapiens, UniProt Q9HB20). The experiment is described as follows: Protein-lipid overlay. It is filed as binding. The following applies: FIG. 2 and Table 2. The protocol: as §1
Chain of human FAPP1 PH domain (residues 1 to 99), GST fusion (Q9HB20 1-99): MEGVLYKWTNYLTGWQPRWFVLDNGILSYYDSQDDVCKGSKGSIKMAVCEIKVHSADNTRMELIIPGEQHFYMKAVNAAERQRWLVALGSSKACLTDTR
(§5) Protein-Lipid overlay. To assess the phosphoinositide binding properties of each PH domain, a protein-lipid overlay assay was performed using the GST fusion proteins as described previously. Briefly, 1 μl of lipid solution containing 1-100 pmol of phospholipids dissolved in a mixture of choroform:methanol:water (1:2:0.8) was spotted onto Hybond-C extra membrane and allowed to dry at room temperature for 1 h. […]

Experiment [10] deals with human FAPP2 (accession AF380162), GST fusion (Homo sapiens, UniProt Q96JA3). Kind of experiment: Protein-lipid overlay. It counts as binding. The conditions noted are these: FIG. 11. As to the method:
as §1
Methods used are equivalent to those specified in the legend to FIG. 2.
as §5

The target of experiment [11] is T2, human FAPP1 PH domain (residues 1 to 99, accession W32183), GST fusion (Homo sapiens, UniProt Q9HB20).
T2 construct: made in house; host or cells: E. coli BL21 (pGEX4T-1)
T2 sequence (Q9HB20 1-99, one chain of several): as the sequence (Q9HB20 1-99) above
Kind of experiment: Surface plasmon resonance (BIACore), GST fusion binding to phosphoinositide in supported lipid monolayer. The conditions noted are these: supported phosphatidylcholine monolayers, 1:1 binding model, NB, no binding detected, read-out: Apparent Kd.
Excerpt: as §2
Expression of GST-PH domains in E.coli. The pGEX4T-1 constructs encoding the PH domains of FAPP1, AtPH1, PEPP1, LL5α, LL5β, evectin-2 and PH30 were transformed into BL21 E.coli cells and a 0.5 L culture was grown at 37° C. in Luria Broth containing 100 μg/ml ampicillin, until the absorbance at 600 nm was 0.6. […]
Kinetic analyses of the interactions between the GST PH domain fusions and the polyphosphoinositides were made using surface plasmon resonance based procedures as described previously, with the following modifications. […] Data were analysed using the bimolecular interaction model and the global fitting feature of the BIAevaluation 3 software for several sensorgrams at different protein concentrations. […]

Chain of human FAPP2 (accession AF380162), GST fusion (Q96JA3 whole entry, the tested form may be a part): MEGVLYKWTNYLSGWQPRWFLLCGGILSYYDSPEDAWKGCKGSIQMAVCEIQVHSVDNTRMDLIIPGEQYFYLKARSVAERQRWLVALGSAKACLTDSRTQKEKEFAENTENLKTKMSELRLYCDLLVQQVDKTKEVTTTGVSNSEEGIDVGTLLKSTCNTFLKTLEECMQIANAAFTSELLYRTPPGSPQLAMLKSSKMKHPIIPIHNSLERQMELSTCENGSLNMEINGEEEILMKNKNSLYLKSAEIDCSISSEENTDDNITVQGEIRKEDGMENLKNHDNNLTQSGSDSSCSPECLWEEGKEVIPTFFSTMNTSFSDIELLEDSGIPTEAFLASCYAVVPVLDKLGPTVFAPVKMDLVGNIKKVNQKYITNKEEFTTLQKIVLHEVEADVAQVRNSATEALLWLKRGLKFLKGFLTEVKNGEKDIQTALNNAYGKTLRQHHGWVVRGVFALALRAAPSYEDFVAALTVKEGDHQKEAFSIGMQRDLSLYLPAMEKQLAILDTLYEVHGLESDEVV
Chain of human evectin-2 PH domain (residues 1 to 167), GST fusion (Q96CS7 1-167): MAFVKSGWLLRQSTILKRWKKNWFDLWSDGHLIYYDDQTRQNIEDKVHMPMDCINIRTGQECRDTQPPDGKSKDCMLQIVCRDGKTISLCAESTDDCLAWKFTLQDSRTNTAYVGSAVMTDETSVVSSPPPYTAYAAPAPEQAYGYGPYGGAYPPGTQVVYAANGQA

Regarding `CCCCC/C=C\C/C=C\C/C=C\C/C=C\CCCC(=O)O[C@H](COC(=O)CCCCCCCCCCCCCCCCC)COP(=O)(O)O[C@H]1[C@H](O)[C@@H](OP(=O)(O)O)[C@H](OP(=O)(O)O)[C@@H](OP(=O)(O)O)[C@H]1O` [sn-1-stearoyl-2-arachidonyl-D-PtdIns(3,4,5)P3], the phosphoinositide binding entry in [1] is “did not bind”.

Take `CCCCCCCCCCCCCCCC(=O)OC[C@H](COP(=O)(O)O[C@H]1[C@H](O)[C@@H](OP(=O)(O)O)[C@H](OP(=O)(O)O)[C@@H](OP(=O)(O)O)[C@H]1O)OC(=O)CCCCCCCCCCCCCCC` [PtdIns(3,4,5)P3, phospatidylinositol (3,4,5)-trisphosphate]: the phosphoinositide binding result in experiment [2] is “moderate affinity”; in [3], “did not bind”; in [4], “did not bind”; in experiment [5] it was “binds only”; in experiment [6], “binds”; in [1], “did not bind”.

For phospatidylinositol, the lipid binding entry in [7] is listed as “None of the PH domains whose lipid binding properties were investigated in FIG. 2, interacted”.

As for phosphatidylserine, the lipid binding entry in [7] is recorded as “None of the PH domains whose lipid binding properties were investigated in FIG. 2, interacted”.

As for `CCCCCCCCCCCCCCCC(=O)OC[C@H](COP(=O)(O)O[C@@H]1[C@H](O)[C@H](O)[C@@H](OP(=O)(O)O)[C@H](OP(=O)(O)O)[C@H]1O)OC(=O)CCCCCCCCCCCCCCC` [PtdIns(4,5)P2, phosphatidylinositol 4,5-bisphosphate], the phosphoinositide binding result in experiment [8] is on record as “binds only”; in experiment [9], “does not interact”.

Regarding phosphatidylethanolamine, the lipid binding entry in experiment [7] is listed as “None of the PH domains whose lipid binding properties were investigated in FIG. 2, interacted”.

Consider `CCCCCCCCCCCCCCCC(=O)OC[C@H](COP(=O)(O)O[C@H]1[C@H](O)[C@@H](O)[C@H](OP(=O)(O)O)[C@@H](O)[C@H]1O)OC(=O)CCCCCCCCCCCCCCC` [PtdIns4P, phosphoinositol 4-monophosphate], for which the figures for the phosphoinositide binding entry in experiment [10], in [10] (listed as PtdIns-4P) and in [9] were “binds specifically”, “specifically binds” and “only binds”, respectively. The Kd in [11] is 20 nM.

As to phosphatidylcholine, the lipid binding result in [7] is listed as “None of the PH domains whose lipid binding properties were investigated in FIG. 2, interacted”.

(Values after patent US20040106148A1, “Polypeptides” (priority 2000, published 2004).)
